EC50 data for 2 compounds are collected here from patent US7935708B2, “Dihydropyrazolopyrimidinone derivatives” (MSD K.K., priority 2006, dated 2011).

In this test the test system is Human colon cancer cells (WiDr). Put plainly: Checkpoint escape effect in gemcitabine-treated WiDr cells (phosphorylated histone H3-positive cells). The class given is cell-based. Particulars: gemcitabine 100 nM 24 hours, then test compound with nocodazole 8 hours. The source says: Pharmaceutical Text 3 (Method of Determining Drug Potency in Cells (Checkpoint-Removing Effect))
Fetal bovine serum (FBS) was obtained from Morgate; DMEM was from Invitrogen; gemcitabine was from Nippon Eli Lilly; nocodazole and 4′,6-diamidino-2-phenylindole were from Sigma; rabbit anti-phosphorylated histone H3 antibody was from Upstate; and fluorescence-labeled (Alexa Fluor 488) anti-rabbit IgG antibody was from Molecular Probe.
Human colon cancer cells (WiDr) were obtained from American Type Culture Collection (ATCC).
c) Method of Effect Determination:
The cells were suspended in DMEM containing 10% FBS, and the cell suspension was applied to a poly-D-lysine-coated 96-well plastic plate (bought from Becton Dickinson) in an amount of 2000 cells/100 μL/well, in which the cells were incubated overnight in 5% CO2-95% air at 37° C. Gemcitabine was dissolved in phosphate-buffered saline (PBS), and diluted with DMEM containing 10% FBS, and then this was applied to the plate on which the cells had been previously sowed, in an amount of 50 μL/well in such a manner that the final concentration of gemcitabine could be 100 nM. Then, the cells were incubated for 24 hours at 37° C. in 5% CO2-95% air. The test compound was stepwise diluted with dimethylsulfoxide, then diluted with 1200 nM nocodazole-containing DMEM containing 10% FBS, and applied to the plate on which the gemcitabine-treated cells had been sowed, in an amount of 50 μL/well. […] Next, this was washed with PBS, and a solution containing 4′,6-diamidino-2-phenylindole that had been diluted with 1% BSA/PBS to have a concentration 10 μg/mL and a fluorescence-labeled (Alexa Fluor 488) anti-rabbit IgG antibody that had been diluted 250-fold was added to it in an amount 50 μL/well, and reacted in a dark place at room temperature for 60 minutes. Finally, this was washed with PBS, and its fluorescence intensity was determined to calculate the ratio of the phosphorylated histone H3-positive cells (cells that had been in a cell division cycle through removal of checkpoint). […]

Structures are written as SMILES.

The EC50 is the concentration that produces a half-maximal response. As to `C=CCn1c(=O)c2cnc(Nc3ccc(N4CCN(C)CC4)cc3)nc2n1-c1cccc(N2CCN(C)C2=O)n1` [Example 148, 2-allyl-1-[6-(3-methyl-2-oxoimidazolidin-1-yl)pyridin-2-yl]-6-{[4-(4-methylpiperazin-1-yl)phenyl]amino}-1,2-dihydro-3H-pyrazolo[3,4-d]pyrimidin-3-one], the concentration giving a half-maximal response (EC50) was 100 nM. Under `C=CCn1c(=O)c2cnc(Nc3ccc(N4CCN(C)CC4)c(CO)c3)nc2n1-c1ccsc1` [Example 3, 2-allyl-6-{[3-(hydroxymethyl)-4-(4-methylpiperazin-1-yl)phenyl]amino}-1-(3-thienyl)-1,2-dihydro-3H-pyrazolo[3,4-d]pyrimidin-3-one] stands 268 nM.
